Data on two compounds can be found in US4017534A, “16-Fluoro-11-deoxy-13-dihydro-prostaglandin” (American Cyanamid Company, priority 1975, dated 1977).

Where two headings read alike, the source gives them in different places.

In one series the test system is cough. The series can be described thus: Cough induction by aerosol in human. It counts as in vivo. On the procedure: (§1) The novel ketals of this invention also show bronchodilator activity when administered by aerosol to dogs wherein bronchoconstriction was induced by administration of pilocarpine. […] This is very important since coughing is one of the damaging side effects reported in the literature when prostaglandin aerosols are administered to human subjects. [See Y. Kawakami et al., European Journal Clinical Pharmacology, 6, 127 (1973); M. F. Cuthbert, Brit. Med. Journ. 723 (Dec. 20, 1969); H. Herxheimer and I. Roetscher, European Journal Clinical Pharmacology, 3, 123 (1971).]

The subject of series [1] is bronchospasms elicited by intravenous injections of acetylcholine. Briefly: Bronchodilator activity (Konzett assay, intravenous) against acetylcholine. It counts as in vivo, guinea pigs. To be noted: Cavia porcellus, guinea pig, spasmogen acetylcholine, read-out: Bronchodilator Activity (Konzett Assays) ED50, acetylcholine. On the procedure:
(§2) The compounds of this invention are useful as bronchodilators for the treatment of asthma and chronic bronchitis. Bronchodilator activity is determined in guinea pigs against bronchospasms elicited by intravenous injections of 5-hydroxytryptamine, histamine or acetylcholine by the Konzett procedure. [See J. Lulling, P. Lievens, F. El Sayed and J. Prignot, Arzneimittel-Forschung, 18, 995 (1968).]
(§3) In Table A which follows bronchodilator activity for representative compounds of this invention against one or more of three spasmogenic agents is expressed as an ED50 determined from the results obtained with three logarithmic cumulative intravenous doses.

Series [2] concerns bronchospasms elicited by intravenous injections of 5-hydroxytryptamine. The series can be described thus: Bronchodilator activity (Konzett assay, intravenous) against 5-hydroxytryptamine. To be noted: Cavia porcellus, guinea pig, spasmogen 5-hydroxytryptamine, read-out: Bronchodilator Activity (Konzett Assays) ED50, 5-hydroxytryptamine. The format is in vivo, guinea pigs. On the procedure: as §2, §3

For series [3], the system named is basal gastric acid secretion. Briefly: Inhibition of total acid output in the acute gastric fistula rat. It counts as in vivo, Female Sprague-Dawley rats. The conditions noted are these: intraduodenal route; for ED50: Rattus norvegicus, Table C. On the procedure:
The compounds of this invention are also useful as inhibitors of gastric acid secretion and peptic ulcer formation and may be used for the treatment of gastric hyperacidity, gastric erosion, and peptic ulcer. Inhibition of basal gastric acid secretion can be determined by the following procedure.
Female Sprague-Dawley rats weighting 140-160 grams are fasted in individual cages for 18-24 hours. The rats are then lightly anesthetized with ether and their front teeth extracted to avoid destruction of the plastic cannula. A midline incision is then made and the stomach and duodenum exposed. A flanged polyvinyl tube is inserted into the fundic portion of the stomach and secured with a purse string suture line using 4-O Mersilene. The rat is then dosed by injection of the compound into the duodenum (1.0 ml. per 100 gram body weight). After dosing, the abdominal wall and skin are closed using metal wound clips. The rate is replaced in a cage containing a longitudinal slit to allow the polyvinyl tube to hang freely. An 8 ml. plastic collecting tube is attached to the flanged cannula and hangs freely below the cage. The first 30 minute sample is discarded designating this time as zero. The collecting tube is attached again and samples removed at the end of 60 and 120 minutes. These samples are referred to as "A" and "B" in the table. The hourly samples are then transferred to a 15 ml. centrifuge and centrifuged for 5-10 minutes. Total and sediment volume are then recorded with the supernatent volume being used as volume of secretion. A 1 ml. or less aliquot is then removed and placed in a 50 ml. beaker containing 10 ml. of distilled water. This sample is then titrated using 0.01N NaOH to pH 7.0 using a Beckman zeromatic pH meter. Volume, titratable acidity (meg.L) and total acid output (μeg/hour) are recorded. Percent inhibition is determined by comparison with the appropriate control. Groups of three rats were used for preliminary testing, and groups of six rats were used for dose-response evaluations. All compounds are administered in a vehicle consisting of 0.5% methocel, 0.4% tween 80, and saline at a constant volume of 1 ml./100 gram rat. Samples are dispersed by sonification. Percent inhibition is calculated on basis of concurrent vehicle control.
In Table B which follows is given the effect on total acid output after 120 minutes of a 10 mg./kg. dose of representative ketals of this invention. For comparison the result obtained with the corresponding 9-oxo derivative, l 9-oxo-15(S)-hydroxyprostanoic acid is included.
Dose response evaluation in the acute gastric fistual rat assay further illustrates the pronounced advantage of the novel ketals of this invention as gastric acid secretion inhibitors relative to the corresponding 9-oxo derivative.

Series [4] relates to bronchoconstriction induced by administration of pilocarpine. The series can be described thus: Bronchodilator activity by aerosol in dogs. The format is in vivo. On the procedure:
as §1

The subject of series [5] is bronchospasms elicited by intravenous injections of histamine. The series can be described thus: Bronchodilator activity (Konzett assay, intravenous) against histamine. It counts as in vivo, guinea pigs. The conditions noted are these: Cavia porcellus, guinea pig, spasmogen histamine, read-out: Bronchodilator Activity (Konzett Assays) ED50, histamine. On the procedure: as §2, §3

Series [6] relates to bronchospasms elicited by 5-hydroxytryptamine. The series can be described thus: Bronchodilator activity (intraduodenal route) against 5-hydroxytryptamine. It counts as in vivo, guinea pigs. Further details: key: 0: no activity; +: minimal activity; ++++: maximum activity. To be noted: intraduodenal dose 3.2 mg./kg. The protocol:
as §2
(§4) In Table A' which follows bronchodilator activity for representative compounds of this invention against one or more of three spasmogenic agents is reported. In this assay candidate compounds are suspended in 10% gum arabic solution and the suspension is administered by the intraduodenal route. The activity of the compound at any one dose is then investigated throughout the following hour (see above-cited reference, J. Lulling et al.). Potency is then reported as O, +, ++, +++, or ++++, wherein 0 represents no activity, + minimal activity and ++++ maximum activity.

Series [7] relates to bronchospasms elicited by acetylcholine. Briefly: Bronchodilator activity (intraduodenal route) against acetylcholine. The format is in vivo, guinea pigs. Further details: key: 0: no activity; +: minimal activity; ++++: maximum activity. To be noted: intraduodenal dose 3.2 mg./kg. The protocol:
as §2, §4

With `CCCCC[C@H](O)CC[C@H]1CCC2(OCCO2)[C@@H]1CCCCCCC(=O)O` [l-9,9-(ethylenedioxy)-15(S)-hydroxy-prostanoic acid], the “induction of cough by aerosol” value in the series with cough was “does not induce cough”. For the same compound, the ED50 in series [1] is 0.0274 mg/kg; in series [2], 2.53 µg/kg; in series [3] (1 hr. collection, read-out: ED50, 1 hr. collection (A)), 1 mg/kg; in series [3] (2 hr. collection, read-out: ED50, 2 hr. collection (B)), 2.3 mg/kg; in series [5] it was 0.376 µg/kg. In addition, the inhibition in vivo at 10 mg/kg in series [3] (2 h, 10 mg./kg., rat, read-out: %-Inhibition of Total Acid Output After 120 Minutes) worked out at 63%. The “bronchodilator activity by aerosol” value in series [4] (aerosol concentration 0.032%) is given as “fully-present”. For the same compound, the “potency of the ketal relative to the ketone” value in series [4] (aerosol, versus l 9-oxo-15(S)-hydroxyprostanoic acid) is “at least 10 times”.
Turning to `CCCCC[C@H](O)CC[C@H]1CCC2(OCCCO2)[C@@H]1CCCCCCC(=O)O` [l-15(S)-hydroxy-9,9-(propylenedioxy)-prostanoic acid], the “Bronchodilator potency, Spasmogenic Agent 5-Hydroxytryptamine” value in series [6] is “+”. The “Bronchodilator potency, Spasmogenic Agent Acetylcholine” value in series [7] is “+”.

The ED50 is the dose at which the effect has come halfway, by size or by number of responders.
